Measured values: patent US12115151B2, “Method of treatment of p53 WT tumors” (Dana-Farber Cancer Institute, Inc., priority 2018, dated 2024)
“And” between values parts separate entries of the source, which are not always exact repeats. Equal values may be shown once. “Also recorded” adds a separate entry of the source.

Experiments:
MKL-1 MCC cells = experiment: XTT cell viability assay and synergy testing, MKL-1 cells; assay type: cell-based; details: 96 hours; for Response-rep1 / Response-rep2: HDM201 0 nM; for relative viability (XTT), untreated = 1: combinations with a fixed amount of Lenalidomide (5 uM), replicate columns; for Response: relative viability vs untreated
Procedure: (§1) Cell viability assays were performed using Cell Proliferation Kit II (XTT) (Roche) according to the manufacturer's instructions and BH3 profiling was described in Pallis et al. (36). Synergy testing was performed using Compusyn and Synergyfinder (28, 29).
The XTT assay was performed to determine the relative viability (% response) normalized to untreated cells.

CK1α [1] = target: T1, CK1α (Homo sapiens, UniProt P48729); experiment: Western blot of CK1α in UISO cells; assay type: cell-based; details: lenalidomide 10 μM, 24 hours
Source text: Of note, UISO has less MDM2 and MDM4 proteins than MKL-1.

MDM4 binding to p53 = experiment: Immunoprecipitation of MDM4, p53 and CK1α from MKL-1 lysates; assay type: cell-based; details: MKL-1 cells; nutlin-3 5 μM, lenalidomide 10 μM, 40 hours
Procedure: (§2) Confluent cultures of cells were washed with ice-cold phosphate-buffered saline (PBS) and resuspended in EBC lysis buffer (50 mM Tris, pH 8.0, 150 mM NaCl, 0.5% NP-40, 1:10,000-mercaptoethanol, 0.5 mM EDTA) for 10 min on ice and then centrifuged. Clarified lysates were incubated overnight with antibodies and magnetic protein A/G beads (PureProteome magnetic beads, EMD Millipore). […] Mouse monoclonal antibodies Ab3 and Ab5 against MCV T antigens were generated against MCV large T antigen residues 1 to 260 and produced as a glutathione S-transferase (GST) fusion protein in bacteria (17). Quantitative western blotting was performed using the Odyssey near-infrared system (Li-Cor Biotechnology).

CK1α [2] = target: T1, CK1α; experiment: Western blot of CK1α protein levels in MKL-1 cells; assay type: cell-based; details: IMiD 10 μM
Procedure: (§3) Confluent cultures of cells were washed with ice-cold phosphate-buffered saline (PBS) and resuspended in EBC lysis buffer (50 mM Tris, pH 8.0, 150 mM NaCl, 0.5% NP-40, 1:10,000-mercaptoethanol, 0.5 mM EDTA) for 10 min on ice and then centrifuged. Clarified lysates were incubated overnight with antibodies and magnetic protein A/G beads (PureProteome magnetic beads, EMD Millipore). […] Quantitative western blotting was performed using the Odyssey near-infrared system (Li-Cor Biotechnology).

MKL-1 MCC xenografts = experiment: Xenograft efficacy study; details: individual animals, oral daily, HDM201 40 mg/kg and/or lenalidomide 50 mg/kg; for Tumor Volume Change, Abs Ch = T − T0: tumor volumes in mm3
Source text: The study was terminated when the tumor volume reached the maximum permissible size of 2000 mm3.

p53 [3] = experiment: Western blot of p53 activation in MKL-1 cells; assay type: cell-based; details: 24-40 hours
Procedure: as §2

MS-1 cells = experiment: XTT viability assay, MS-1 cells; assay type: cell-based; details: MS-1 (p53 mutant); 96 hours
Procedure: as §1

p53 [4] = experiment: Western blot of p53 response in IMR90-p53DD cells; assay type: cell-based, human; details: IMR90 cells expressing p53DD, Nutlin-3 1 μM, 24 hours
Procedure: as §3

T1 sequence (P48729 whole entry): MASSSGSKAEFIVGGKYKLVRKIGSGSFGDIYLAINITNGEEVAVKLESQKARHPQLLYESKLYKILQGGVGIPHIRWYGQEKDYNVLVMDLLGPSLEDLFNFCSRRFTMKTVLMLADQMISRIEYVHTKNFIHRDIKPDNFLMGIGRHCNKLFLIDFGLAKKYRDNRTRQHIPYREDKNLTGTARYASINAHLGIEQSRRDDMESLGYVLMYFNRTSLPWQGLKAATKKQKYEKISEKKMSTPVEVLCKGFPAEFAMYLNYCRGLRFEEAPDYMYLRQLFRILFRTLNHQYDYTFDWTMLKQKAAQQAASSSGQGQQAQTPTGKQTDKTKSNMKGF

Nc1cccc2c1CN(C1CCC(=O)NC1=O)C2=O (racemic) [Lenalidomide, (RS)-3-(7-Amino-3-oxo-1H-isoindol-2-yl)piperidin-2,6-dion]
Response-rep1 (MKL-1 MCC cells; Lenalidomide 5000 nM): 98.9539%
Response-rep2 (MKL-1 MCC cells; Lenalidomide 5000 nM): 97.73%
Response-rep1 (MKL-1 MCC cells; Lenalidomide 10000 nM): 83.3296%
Response-rep2 (MKL-1 MCC cells; Lenalidomide 10000 nM): 76.26%
Response-rep1 (MKL-1 MCC cells; Lenalidomide 15000 nM): 69.78%
Response-rep2 (MKL-1 MCC cells; Lenalidomide 15000 nM): 67.82%
Response-rep1 (MKL-1 MCC cells; Lenalidomide 18000 nM): 25.1812%
Response-rep2 (MKL-1 MCC cells; Lenalidomide 18000 nM): 49.26%
relative viability (XTT), untreated = 1 (MKL-1 MCC cells; Nutlin-3 or RG7388 level 25 (unit not given)): 1.143 and 0.8845 and 1.022
relative viability (XTT), untreated = 1 (MKL-1 MCC cells; Nutlin-3 or RG7388 level 50 (unit not given)): 1.089 and 0.9384 and 1.081
relative viability (XTT), untreated = 1 (MKL-1 MCC cells; Nutlin-3 or RG7388 level 75 (unit not given)): 1.027 and 1.061 and 1.086
relative viability (XTT), untreated = 1 (MKL-1 MCC cells; Nutlin-3 or RG7388 level 90 (unit not given)): 1.011 and 0.945 and 0.9521
Response (MKL-1 MCC cells; Lenalidomide 5000 nM alone): 104.85%
Response (MKL-1 MCC cells; Lenalidomide 10000 nM alone): 105.06%
Response (MKL-1 MCC cells; Lenalidomide 15000 nM alone): 107.06%
Response (MKL-1 MCC cells; Lenalidomide 18000 nM alone): 100.64%
CK1α levels (CK1α [1]): depletes CK1α
CK1α levels (CK1α [1]; listed as lenalidomide): decreased the CK1α levels
MDM4 binding to p53 (co-immunoprecipitation) (MDM4 binding to p53): reduces MDM4 binding to p53
CK1α protein levels (CK1α [2]): reduces CK1α protein rapidly; also recorded: decreases CK1α protein levels
CK1α protein levels (CK1α [2]; listed as lenalidomide): levels rapidly decreased
Tumor Volume Change, % Ch = (T − T0)/T0 (MKL-1 MCC xenografts; day 0): 0.00%
Tumor Volume Change, Abs Ch = T − T0 (MKL-1 MCC xenografts; day 0): 0.00
Tumor Volume Change, % Ch = (T − T0)/T0 (MKL-1 MCC xenografts; day 4): 74.88% and 101.33% and 102.10% and 99.96% and 150.37% and 52.58% and 63.66% and 71.12%
Tumor Volume Change, Abs Ch = T − T0 (MKL-1 MCC xenografts; day 4): 144.53 and 151.67 and 182.72 and 171.42 and 196.53 and 107.98 and 82.85 and 113.80
Tumor Volume Change, % Ch = (T − T0)/T0 (MKL-1 MCC xenografts; day 7): 172.14% and 170.30% and 232.85% and 199.00% and 277.21% and 108.30% and 219.88% and 209.85%
Tumor Volume Change, Abs Ch = T − T0 (MKL-1 MCC xenografts; day 7): 332.29 and 254.90 and 416.69 and 341.29 and 362.30 and 222.38 and 286.16 and 335.77
Tumor Volume Change, % Ch = (T − T0)/T0 (MKL-1 MCC xenografts; day 11): 532.35% and 513.08% and 584.49% and 475.00% and 680.10% and 321.83% and 431.10% and 501.46%
Tumor Volume Change, Abs Ch = T − T0 (MKL-1 MCC xenografts; day 11): 1027.58 and 768.00 and 1045.97 and 814.62 and 888.86 and 660.89 and 561.06 and 802.36
Tumor Volume Change, % Ch = (T − T0)/T0 (MKL-1 MCC xenografts; day 14): 811.07% and 861.89% and 936.62% and 702.42% and 1182.50% and 538.29% and 804.69% and 779.36%
Tumor Volume Change, Abs Ch = T − T0 (MKL-1 MCC xenografts; day 14): 1565.59 and 1290.11 and 1676.13 and 1204.65 and 1545.48 and 1105.37 and 1047.26 and 1246.99
Tumor Volume Change, % Ch = (T − T0)/T0 (MKL-1 MCC xenografts; day 18): 1406.04% and 1123.01% and 1595.67% and 1146.29% and 1544.08% and 774.41% and 1719.65% and 1318.82%
Tumor Volume Change, Abs Ch = T − T0 (MKL-1 MCC xenografts; day 18): 2714.05 and 1680.96 and 2855.54 and 1965.88 and 2018.05 and 1590.25 and 2238.02 and 2110.15
p53 activation (p53, P-p53, Ac-p53, p21, PUMA levels) (p53 [3]): modest positive effect on p53 levels

COc1ccc(C2=N[C@@H](c3ccc(Cl)cc3)[C@@H](c3ccc(Cl)cc3)N2C(=O)N2CCNC(=O)C2)c(OC(C)C)c1 [Nutlin-3]
sensitivity of MS-1 cells to MDM2 inhibitor (XTT viability) (MS-1 cells): not MS-1 cells were sensitive
p53 response (p53 [4]): does not elicit p53 response
p53 response (p53 [4]; listed as nutlin-3): did not increase p53, p-p53 and PUMA levels
sensitivity of MKL-1 cells to MDM2 inhibitor (XTT viability) (MKL-1 MCC cells; MKL-1 (p53 wild type)): sensitive
Response (MKL-1 MCC cells; Nutlin-3 1250 nM alone): 96.8309% and 82.16%
Response (MKL-1 MCC cells; Nutlin-3 2500 nM alone): 65.56% and 72.5696%
Response (MKL-1 MCC cells; Nutlin-3 3750 nM alone): 44.2% and 63.6648%
Response (MKL-1 MCC cells; Nutlin-3 4500 nM alone): 41.19% and 56.8421%
